Measurements taken from a melting point compilation (Tetko et al.; mined from patent text by program, amines drawn as free bases though some values may be those of a salt).

Row | SMILES | melting point [°C]
1 | CCNCC(=O)Nc1c(Cc2nccc3ccccc23)ccc(OC)c1OC | 107 to 108
2 | CCCc1c(OCc2ccccc2)ccc2c1OC(CCC(=O)O)(CCC(=O)O)CC2=O | 202 to 205
3 | COCCOc1ccc2ccc(NC(=O)c3ccc(OC)cc3)nc2n1 | 114
4 | O=C1OCc2c1nc1ccc3c(c1c2-c1ccc2c(c1)OCO2)OCO3 | 272 to 274
5 | CC(=O)c1ccc(OCCCN2CCC(c3noc4cc(F)ccc34)CC2)c(CC(N)=O)c1 | 108 to 110
6 | CSc1ccc(C(CC2CCCC2)C(=O)O)cc1C(F)(F)F (centres undefined) | 105 to 106
7 | Cn1cc(CCNC(=O)OC(C)(C)C)c2cc(S(=O)(=O)c3ccccc3)ccc21 | 127 to 131
8 | CCCCn1c(=O)c2cn(S(=O)(=O)c3cc(Cl)c(Cl)s3)nc2n(CCCC)c1=O | 181 to 182
9 | CCOC(=O)CN(N)C(=O)Nc1ccccc1C(=O)C1CCCCC1 | 108 to 110
10 | O=C1NN=C(c2ccc3c(c2)CCN(C2CCC2)CC3)C2CC12 (centres undefined) | 129 to 132
11 | CCC(CC)c1nn(-c2ccc(Cl)cn2)cc1CCCOc1c(CC(=O)O)cccc1OC | 85 to 86
12 | N#Cc1ccc(N2C(=O)C3C(O)CCCN3C2=O)c2ccccc12 (centres undefined) | 243
13 | CCOC(=O)C(=CNc1ccc(F)c(Cl)c1)C(=O)c1ccccc1Cl | 96 to 102
14 | CC(O)C1CCC2C3CCC4=CC(O)CCC4(C)C3CCC12C (centres undefined) | 169 to 170
15 | O=C(Nc1c([N+](=O)[O-])ccc2c3c(oc12)CCCC3)c1c(Cl)cccc1Cl | 246 to 248
16 | O=C1N(Cc2ccc(C(F)(F)F)o2)c2cccc(-c3cncnc3)c2C12COc1cc3c(cc12)CCO3 (centres undefined) | 263 to 266
17 | CCSc1cc(C)nc(SCC)c1NC(=O)CCCCSc1nc2ccccc2o1 | 122 to 123
18 | CCOC(=O)c1ccc2[nH]cc(CCNC(=O)OC(C)(C)C)c2c1 | 170 to 171
19 | CCOC(=O)c1cc2cc(-c3ccc(NC(C)=O)cc3)ccc2o1 | 174 to 176
20 | Nc1ccc(-c2cccc(C(F)(F)F)c2)nn1 | 138 to 139
21 | CC1(C)C(Cl)(Cl)C1(Cl)C(=O)O (centres undefined) | 148 to 150
22 | C1=C(c2ccccc2)CCN(c2nsc3ccccc23)C1 | 272 to 273
23 | CCCCCC(CC(=O)NO)C(=O)NC(C(=O)N1CCCC1CO)C(C)C (centres undefined) | 148 to 149
24 | O=C1C2CCCCN2C(=O)N1c1c(F)cc(Cl)c2nc(Cl)sc12 (centres undefined) | 168 to 170
25 | S=C=Nc1c(Br)cccc1Br | 63 to 65

Row | SMILES | melting point [°C]
26 | CCOC(=O)C1=C(C)NC(O)(C(Cl)(Cl)Cl)C(C(=O)OCC)C1c1cccc([N+](=O)[O-])c1 (centres undefined) | 125 to 126
27 | CN(Cc1cccc2c1CN(C1CCC(=O)NC1=O)C2=O)C(=O)Nc1cccc2ccccc12 (centres undefined) | 292 to 294
28 | CCOC(=O)Cc1csc(NC(=O)C(Cc2ccccc2)NC(=O)OC(C)(C)C)n1 (centres undefined) | 119 to 120
29 | CC(=O)OCCOCn1c(=O)sc2c(=O)[nH]c(N)nc21 | 173 to 176
30 | COc1cc(N)c(Cl)cc1C(=O)NCC1CCN(CCCCCNC(=O)c2ccc(Cl)cc2)CC1 | 196 to 198
31 | O=C(O)c1c(Br)ccc(OCc2ccccc2Cl)c1OCc1ccccc1Cl | 156 to 158
32 | COCCn1nc(CC(C)C)c2cn(Cc3cccc4ccccc34)cc2c1=O | 96 to 98
33 | CC(C)(C)OC(=O)N1CCN(C(=O)c2ccc3n2Cc2ccccc2N(C(=O)C2=CC=C(c4ccccc4)C(C)(C(F)(F)F)C2)C3)CC1 (centres undefined) | 104 to 121
34 | COc1cc(SCc2sc(-c3ccc(C(F)(F)F)cc3)nc2C)c(C)cc1OCC(=O)O | 165 to 167
35 | O=C(O)C1CCc2onc(-c3ccc(Cl)cc3)c2C1 (centres undefined) | 203 to 205
36 | CC(=O)Nc1nc(CC(=O)O)ns1 | 161 to 163
37 | Cc1ccc2c(c1)C(=O)N(C)Cc1c(C(N)=O)ncn1-2 | 290 to 294
38 | COC(=O)c1ncn(C2OC(COC(=O)c3ccccc3)C(OC(=O)c3ccccc3)C2OC(=O)c2ccccc2)n1 (centres undefined) | 137 to 139
39 | COc1cc(OC)nc(NC(=O)NS(=O)(=O)c2ccccc2C=C2CCOC2=O)n1 | 185 to 190
40 | C=CCOC1=NC2OC(C(=O)c3ccc(Cl)cc3Cl)=C(NC(N)=O)C2C=C1 (centres undefined) | 222
41 | CCNC(=O)Cn1nc(Nc2ccc3c(c2)OC(F)(F)O3)nc1-c1cc(C)nc(C)c1 | 242
42 | O=C(Oc1ccccc1)OC1c2nccnc2C(=O)N1c1ccc(Cl)cn1 (centres undefined) | 193
43 | COC(=O)CCc1cc2cc(Cl)ccc2n1S(=O)(=O)c1cccc2cccnc12 | 157 to 161
44 | CC(C)(C)c1cc(CCc2ccccc2NC(=O)NC2CCCCC2)cc(C(C)(C)C)c1O | 198 to 200
45 | CC(C)[C@H](N)C(c1ccccc1)c1ccccc1 | 71 to 72
46 | CN(Cc1cc2c(=O)c(C(=O)NCc3ccc(Cl)cc3)cn(C)c2o1)CC(O)c1ccccn1 (centres undefined) | 130 to 132
47 | Clc1cc(N2CCCC2)nc(N2CCNCC2)n1 | 77 to 92
48 | O=C1OC(c2cccc(C(F)(F)F)c2)=NC1=Cc1cccs1 | 200 to 202
49 | COc1cc2c3c4c(c(-c5ccccc5)cc3n(C)c2cc1CCCO)C(=O)NC4=O | 105 to 110
50 | CCOC(=O)C(Cc1ccc(C(N)=S)cc1)(NC(C)=O)C(=O)OCC | 168 to 172

Row | SMILES | melting point [°C]
51 | CC(C)c1cccc(-c2nscc2C(=O)O)c1 | 143 to 157
52 | COC(=O)COCc1cc2cc(Cl)ccc2n1S(=O)(=O)c1ccccc1 | 98 to 100
53 | CC(C)(C)c1cc2c(c(C(C)(C)C)c1O)CC1(CCCCC1)S2 | 128
54 | O=C(O)CCCCCOc1ccc2sc(-c3ccccn3)nc(=O)c2c1 | 205 to 206
55 | COc1c(-c2ccc3cc(NS(C)(=O)=O)ccc3c2)cc(-n2ccc(=O)[nH]c2=O)cc1C(F)(F)C(F)(F)F | 162 to 165
56 | O=C1c2ccccc2C(=O)N1CCc1cn2ccccc2n1 | 181 to 182
57 | O=c1c2ccccc2n(Cc2ccccc2)n2cccc12 | 146 to 148
58 | CCCN1CCc2c(cccc2NC(=O)c2ccc(OC)c(OC)c2)C1 | 146 to 147
59 | Oc1cc(Cl)c(OCc2ccc(F)c(Oc3ccccc3)c2)c(Cl)c1 | 145
60 | CC(=O)C(=Cc1cccc([N+](=O)[O-])c1)C(=O)OCCCl | 95 to 97
61 | NC(=O)C(CCCCCOc1c(Cl)ccc(C=O)c1[N+](=O)[O-])N1CCCCC1 (centres undefined) | 98 to 99
62 | O=C(O)C(CCC(=O)N1CCOCC1)Cc1cccc2ccccc12 (centres undefined) | 130 to 135
63 | Cn1c(Sc2cc(C(F)(F)F)ccc2C(=O)O)n[nH]c1=O | 229
64 | CCCCc1nc2cccc(C(=O)O)c2n1Cc1ccc(-n2cccc2-c2nnn[nH]2)cc1 | 165 to 167
65 | O=C(Cc1ccc(OCc2ccccc2)cc1OCc1ccccc1)N1CCN(Cc2ccccc2)CC1 | 104 to 106
66 | COC(=O)CNCCNC(=O)c1nc(Cl)c(N)nc1N | 145 to 146
67 | COc1ccc2c(c1)CCC1C3=CC(C)=C(OC(C)=O)C3(C)CCC21 (centres undefined) | 129 to 130
68 | NC1=NC(Br)=C(c2ccc(C(F)(F)F)cc2)c2ccccc2C1 | 227 to 229
69 | CCCC(=O)C1=C(O)CC(c2c(C)c(C)c3c(c2C)CC(C)(C)O3)CC1=O (centres undefined) | 83
70 | Nc1ccc(OCc2nnco2)cc1 | 56 to 57
71 | CCCCCCCCCCCC(=O)Oc1ccc2nc(S(N)(=O)=O)sc2c1 | 112 to 114
72 | COc1cc(-c2ccc(Cl)cc2)ccc1COCCc1cccc(NS(=O)(=O)C(F)(F)F)c1 | 66 to 68
73 | Clc1ccc2nc(Cl)cnc2c1 | 152
74 | ON=C1CCC(c2ccccc2)CC1 (centres undefined) | 110 to 112
75 | NC(=O)N(O)Cc1ccsc1 | 129 to 131

Row | SMILES | melting point [°C]
76 | CONC(=O)c1cc(-c2ccc(-c3ccco3)cc2)n(-c2ccc(S(C)(=O)=O)c(F)c2)n1 | 126 to 128
77 | Cc1cc(C)c2c(c1C)OCC2c1cccc(Br)c1 (centres undefined) | 73 to 74
78 | CC(C)c1nn(-c2ccccn2)c(-c2ccc(F)cc2)c1/C=C/C=O | 105 to 107
79 | Cn1cc(C2=CCN(CCCN3c4cccc5cccc(c45)S3(=O)=O)CC2)c2ccccc21 | 161
80 | CCOC(=O)Cc1cccc(Sc2ccccc2Cl)c1[N+](=O)[O-] | 78 to 80
81 | O=C1C2=C(CCCC2)C(=O)N1c1cc(OC2CCCC2)c(Cl)cc1F | 69 to 75.2
82 | O=C(Nc1ccc(F)cc1F)NC1(c2cccs2)CCCCC1 | 175 to 177
83 | NC(=O)C1CCN(c2c(Cl)cncc2Cl)C1 (centres undefined) | 161 to 163
84 | Cc1ccc(N2CCN(Cc3n[nH]c4c(F)cccc34)CC2)cc1 | 176 to 177
85 | COc1ccc(C=Cc2cc3cc(Br)ccc3o2)cc1 | 190 to 194
86 | CC1(C)CC([N+]([O-])=Cc2ccccc2)CC(C)(C)N1 | 113
87 | OCc1cc(N2CCCC2)c(Br)cn1 | 108 to 110
88 | O=C1CCCN1CC1CCN(c2nc(C(F)(F)F)ncc2OCc2ccccc2)CC1 | 155 to 157
89 | COc1cc(C(=O)O)ccc1Cc1cn(C)c2ccc(C(=O)NCCC(C)C)cc12 | 190 to 191
90 | Cc1ccc2oc(=O)n(-c3ccnc(NC(=O)NCc4ccccn4)c3)c2c1 | 205 to 206
91 | Cc1cc(C)c(-c2cn(C)c3nc(NC(=O)N(C)C)n(C)c(=O)c23)c(C)c1 | 221 to 223
92 | CS(=O)(=O)c1ccc(-n2nc(C(F)(F)F)cc2-c2ccc(-c3nccs3)cc2)cc1 | 206 to 207
93 | C=Cc1cc(CNC(=O)NCc2ccc(C(C)(C)C)cc2)cc(C(F)(F)F)c1NS(C)(=O)=O | 134 to 136
94 | O=C(Nc1ccc(N2C[C@H]3CN(C(=O)OCc4ccccc4)C[C@H]3C2)c(F)c1)OCc1ccccc1 | 121 to 122
95 | CCN1CCC(O)(c2cccc(OC)c2)CC1 | 86.7 to 91.1
96 | Cc1cc(Cl)c2c(O)c3c(=O)[nH][nH]c(=O)c3nc2c1 | 197 to 199
97 | O=C1COCC2=C1C(c1ccc(F)c(I)c1)C1=C(CCS1(=O)=O)N2 (centres undefined) | > 260
98 | O=C(NC(=O)c1c(F)cccc1Cl)Nc1ccc(Br)cn1 | 207 to 213
99 | C#CCCCCCCCCOc1cccc(C(N)=O)c1 | 111 to 112
